Reference: ChEMBL document CHEMBL1201862, “PubChem BioAssay data set” (2004)
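Each compound was tested at five concentrations against cells in 96-well plates for 48 hours. Abbreviation: GI50, concentration required for 50% inhibition of growth.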 Calls of active or inactive are those of the source. Rule as the data show it: active = GI50 up to about 1.1 µM and inactive = higher.

Legend:
Experiment in all cases: NCI tumour cell line growth inhibition, 48 h
[1] = system: CAKI-1
[2] = system: DU-145
[3] = system: HCC 2998
[4] = system: HL-60
[5] = system: HT-29
[6] = system: K562
[7] = system: LOX IMVI
[8] = system: MCF7
[9] = system: Malme-3M
[10] = system: OVCAR-8
[11] = system: PC-3
[12] = system: SF-268
[13] = system: SK-MEL-2
[14] = system: SN12C
[15] = system: SNB-19
[16] = system: SNB-75
[17] = system: SR
[18] = system: SW-620
[19] = system: U-251
[20] = system: UACC-62

Row | Structure (SMILES) | GI50 [1] | GI50 [2] | GI50 [3] | GI50 [4] | GI50 [5] | GI50 [6] | GI50 [7] | GI50 [8] | GI50 [9] | GI50 [10] | GI50 [11] | GI50 [12] | GI50 [13] | GI50 [14] | GI50 [15] | GI50 [16] | GI50 [17] | GI50 [18] | GI50 [19] | GI50 [20]
1 | CN1CCN(C(=O)c2cn(Cc3cncn3Cc3ccc4c(c3)OCO4)cc2-c2cccc3ccccc23)CC1 | 20.5 µM (inactive) | 37.4 µM (inactive) | 10.6 µM (inactive) | 0.337 µM (active) | 3.11 µM (inactive) | 3.32 µM (inactive) | 4.76 µM (inactive) | 14.2 µM (inactive) | 3.33 µM (inactive) | 31.6 µM (inactive) | 15.6 µM (inactive) | 18.5 µM (inactive) | 0.268 µM (active) | 17.5 µM (inactive) | 14.3 µM (inactive) | 14.7 µM (inactive) | 0.0237 µM (active) | 13.9 µM (inactive) | 7.73 µM (inactive) | 7.96 µM (inactive)
2 | CCOC(=O)C1OC(C2(C)OC3(OC4(C=CC3O)OC(C(C)C(=O)C(C)C(O)C(C)CC(C)c3c(Cl)cc(C)c(O)c3C(=O)O)C(C)CC4C)C(C)C2OC)CC1O (stereo not given) | 0.752 µM (active) | 0.598 µM (active) | 0.034 µM (active) | 0.542 µM (active) | 0.34 µM (active) | 0.505 µM (active) | 0.413 µM (active) | 0.181 µM (active) | 0.294 µM (active) | 0.771 µM (active) | 1.6 µM (inactive) | 0.155 µM (active) | 0.493 µM (active) | 0.207 µM (active) | 0.249 µM (active) | 0.163 µM (active) | 0.207 µM (active) | 0.251 µM (active) | 0.189 µM (active) | 0.27 µM (active)
3 | Nc1nc(-c2ccccc2)c(Cl)c(-c2cc(Cl)ccc2O)n1 | 20.5 µM (inactive) | 11.1 µM (inactive) | > 81.1 µM (inactive) | > 42.9 µM (inactive) | 49.2 µM (inactive) | > 46.5 µM (inactive) | 21.2 µM (inactive) | 2.04 µM (inactive) | > 77.1 µM (inactive) | 14 µM (inactive) | 36.1 µM (inactive) | 18.3 µM (inactive) | 38.4 µM (inactive) | 25.4 µM (inactive) | 19.2 µM (inactive) | 13.7 µM (inactive) | > 100 µM (inactive) | 44.3 µM (inactive) | 15.2 µM (inactive) | 50.8 µM (inactive)
4 | COc1cc(OC)c2c(=O)c3cccc(C)c3n(C)c2c1 | > 100 µM (inactive) | 57.3 µM (inactive) | > 100 µM (inactive) | 30.5 µM (inactive) | 27.9 µM (inactive) | 25.8 µM (inactive) | 55.7 µM (inactive) | 34 µM (inactive) | 98.2 µM (inactive) | 64.7 µM (inactive) | 50.9 µM (inactive) | 72.6 µM (inactive) | 76.7 µM (inactive) | > 100 µM (inactive) | > 100 µM (inactive) | 61.5 µM (inactive) | 37 µM (inactive) | > 100 µM (inactive) | 84.3 µM (inactive) | 61.4 µM (inactive)
5 | CC(C)Oc1cccc(N2C(NCc3c[nH]c4ccccc34)=Nc3ccncc3S2(=O)=O)c1 | 32.1 µM (inactive) | 42.8 µM (inactive) | 25.5 µM (inactive) | 21.5 µM (inactive) | 25.1 µM (inactive) | 21.1 µM (inactive) | 26.9 µM (inactive) | 18.4 µM (inactive) | 20.5 µM (inactive) | 29.9 µM (inactive) | 16.3 µM (inactive) | 32.2 µM (inactive) | 18.6 µM (inactive) | 39.5 µM (inactive) | 32.4 µM (inactive) | 18.3 µM (inactive) | 28.8 µM (inactive) | 33.7 µM (inactive) | 29.4 µM (inactive) | 11.9 µM (inactive)
